According to patent publication US20020111360A1, “Quinazoline formulations and therapeutic use thereof” (PARKER HUGHES INSTITUTE, priority 1999, published 2002):
Structures can show the parent of a compound that is named as a salt.

Columns and labels:
[1] = Solubility of WHI-P131 free base and chloride salt in various liquids; assay type: physicochemical
Procedure: The solubility of WHI-P131 free base was measured in water, propylene glycol, polyethylene glycols (PEGs), ethanol, and triglycerides. The solubility of WHI-P131 is very poor in water. It was about 35 times more soluble in C8-C10 medium chain triglyceride (Captex 300) than in water. It was much more soluble in ethanol and hydrophilic cosolvents such as propylene glycol and PEGs.
Parallel solubility measurements were also carried out using WHI-P131 chloride salt. […] In contrast, the solubility of WHI-P131 chloride decreased drastically in all other liquids. […] This fact underscores the importance of knowing the solubility profile of both the free base and salt forms of an ionizable compound when making choices of its delivery vehicles.

| SMILES | melting point | other results |
| --- | --- | --- |
| COc1cc2ncnc(Nc3cnc(O)nc3O)c2cc1OC [P-215, 4-(2′,4′-Dihydroxyl-1′,3′-diazine-5′)-amino-6,7-dime-thoxyquinazoline] | > 300 °C |  |
| COc1cc2ncnc(Nc3cc(Br)c(C)c(Br)c3)c2cc1OC [P-212, 4-(3′,5′-Dibromo-4′-methylphenyl)-amino-6,7-dimethoxyquinazoline] | 275 to 279 °C |  |
| COc1cc2ncnc(Nc3ccc(C)c(Br)c3)c2cc1OC (as salt: salt) [P-111, 4-(3′-Bromo-4′-methylphenyl)-amino-6,7-dimethoxyquinazoline] | 225 to 228 °C |  |
| COc1cc2ncnc(Nc3ccc(I)cc3)c2cc1OC (as salt: salt) [P-300, 4-(4′-Iodophenyl)-amino-6,7-dimethoxyquinazoline] | 240 to 242 °C |  |
| COc1cc2ncnc(Nc3cc(-c4ccccc4)c(O)c(-c4ccccc4)c3)c2cc1OC [P-277, 4-(4′-Hydroxy-3′,5′-diphenylphenyl)-amino-6,7-dime-hoxyquinazoline] | 255 to 257 °C |  |
| COc1cc2ncnc(Nc3cccc4c(O)cccc34)c2cc1OC (as salt: salt) [P-293, 4-(1′-Hydroxy-naphthyl-5′)-amino-6,70-dimethoxyquina-zoline] | 204 to 205 °C |  |
| COc1cc2ncnc(Nc3ccc(C(F)(F)F)cc3)c2cc1OC [P-223, 4-(4′-Trifluoromethylphenyl)-amino-6,7-dimethoxyquinazoline] | 243 to 245 °C |  |
| COc1cc2ncnc(Nc3ccc(C(c4ccc(N)cc4)(C(F)(F)F)C(F)(F)F)cc3)c2cc1OC (as salt: salt) [P-352, 4-{4′-[2″-(4″′-Aminophenyl)-hexafluoropropyl]phenyl}-amino-6,7-dimethoxyquinazoline] | 280 to 282 °C |  |
| COc1cc2ncnc(Nc3c(Br)cccc3Br)c2cc1OC [P-262, 4-(2′,6′-Dibromophenyl)-amino-6,7-dimethoxyquinazoline] | 243 to 246 °C |  |
| COc1cc2ncnc(Nc3ccc(Br)cc3Br)c2cc1OC [P-263, 4-(2′,4′-Dibromophenyl)-amino-6,7-dimethoxyquinazoline] | 257 to 262 °C |  |
| COc1cc2ncnc(Nc3cc(I)c(O)c(I)c3)c2cc1OC (as salt: salt) [P-294, 4-(4′-Hydroxy-3,5-diiodophenyl)-amino-6,7-dimethoxy-quinazoline] | 259 to 260 °C |  |
| COc1cc2ncnc(Nc3ccc(O)c(C(=O)O)c3)c2cc1OC [P-182, 4-(4′-Hydroxyl-3′-Carboxyphenyl)-amino-6,7-dimethoxyquinazoline] | > 300 °C |  |
| COc1cc2ncnc(Nc3ccc(C)c(Br)c3Br)c2cc1OC [P-210, 4-(2′,3′-Dibromo-4′-methylphenyl)-amino-6,7-dimethoxyquinazoline] | 233 to 236 °C |  |
| COc1cc2ncnc(Nc3c(O)ccc4ccccc34)c2cc1OC (as salt: salt) [P-275, 4-(2′-Naphthol-1)-amino-6,7-dimethoxyquinazoline] | 218 to 220 °C |  |
| COc1cc2ncnc(Nc3ccccc3Br)c2cc1OC (as salt: salt) [P-261, 4-(2′-Bromophenyl)-amino-6,7-dimethoxyquinazoline] | 241 to 243 °C |  |
| COc1cc2ncnc(Nc3ccc(O)c(I)c3)c2cc1OC (as salt: salt) [P-299, 4-(4′-Hydroxy-3′-iodophenyl)-amino-6,7-dimethoxyquinazoline] | 248 to 250 °C |  |
| COc1cc2ncnc(Nc3ccc(O)cc3)c2cc1OC [WHI-P131 Free base, 4-(4′-Hydroxylphenyl)-amino-6,7-dimethoxyquinazoline] |  | Solubility ([1]; Captex 300): 0.88 ± 0.08 mg/mL; Solubility ([1]; Ethanol): 18.6 ± 0.5 mg/mL; Solubility ([1]; PEG200): >100 mg/mL; Solubility ([1]; PEG300): >185 mg/mL; Solubility ([1]; Propylene glycol): 19.5 ± 0.7 mg/mL; Solubility ([1]; Water): 0.025 mg/mL; Solubility ([1]; ethanol): 1.86%; Solubility ([1]; polyethylene glycols): greater than 10%; Solubility ([1]; propylene glycol): 1.95% |
| COc1cc2ncnc(Nc3c(Br)cc(C)cc3Br)c2cc1OC [P-241, 4-(2′,6′-Dibromo-4′-methylphenyl)-amino-6,7-dimethoxyquinazoline] | 235 to 237 °C |  |
| COc1cc2ncnc(Nc3cc(C(F)(F)F)cc(C(F)(F)F)c3)c2cc1OC (as salt: salt) [P-366, 4-(3′,5′-Ditrifluoromethylphenyl)-amno-6,7-dimethoxyquinazoline] | 270 to 272 °C |  |
| COc1cc2ncnc(Nc3ccc(O)cc3O)c2cc1OC [P-192, 4-(2′,4′-Dihydroxyphenyl)-amino-6,7-dimethoxyquinazoline] | 240 °C (dec.) |  |

| SMILES | melting point | other results |
| --- | --- | --- |
| COc1cc2ncnc(Nc3ccccc3I)c2cc1OC (as salt: salt) [P-270, 4-(2′-Iodophenyl)-amino-6,7-dimethoxyquinazoline] | 225 to 230 °C |  |
| COc1cc2ncnc(Nc3cc(F)c(O)c(F)c3)c2cc1OC (as salt: salt) [P-408, 4-(4′-Hydroxyl-3′,5′-difluorophenyl)-amino-6,7-dimethoxy-quinazoline] | 228 to 230 °C |  |
| COc1cc2ncnc(Nc3cc(Br)c(C)cc3Br)c2cc1OC (as salt: salt) [P-211, 4-(2′,5′-Dibromo-4′-methylphenyl)-amino-6,7-dimethoxyquinazoline] | 282 to 284 °C |  |
| COc1cc2ncnc(Nc3ccc(Br)cc3CO)c2cc1OC (as salt: salt) [P-190, 4-(4′-Bromo-6′-hydroxymethylphenyl)-amino-6,7-dimethoxyquinazoline] | 222 to 223 °C |  |
| COc1cc2ncnc(Nc3ccc(O)cc3Cl)c2cc1OC (as salt: salt) [P-278, 4-(4′-Hydroxyl-2′-chlorophenyl)-amino-6,7-dimethoxy-quinazoline] | 245 to 247 °C |  |
| COc1cc2ncnc(Nc3ccccc3OC(F)(F)F)c2cc1OC (as salt: salt) [P-365, 4-(2′-Trifluoromethoxylphenyl)-amino-6,7-dimethoxyquinazoline] | 235 to 237 °C |  |
| COc1cc2ncnc(Nc3ccc4c(c3)Cc3cc(Br)ccc3-4)c2cc1OC (as salt: salt) [P-160, 4-[(7′-Bromofluorene)-2]-amino-6,7-dimethoxyquinazoline] | 254 to 256 °C |  |
| COc1cc2ncnc(Nc3c(Br)cc(Br)cc3Br)c2cc1OC [P-222, 4-(2′,4′,6′-Tribromophenyl)amino-6,7-dimethoxyquinazoline] | 250 to 255 °C |  |
| COc1cc2ncnc(Nc3cccc(C(C)O)c3)c2cc1OC (centres unmarked) [P-276, 4-[3′-(1″-Hydroxyethyl)]-amino-6,7-dimethoxyquinazoline] | 215 to 218 °C |  |
| COc1cc2ncnc(Nc3c(F)c(F)c(Br)c(F)c3F)c2cc1OC (as salt: salt) [P-144, 4-(2′,3′,5′,6′-Tetrafluoro-4′-bromolphenyl)-amino-6,7-dime-thoxyquinazoline] | 180 to 182 °C |  |
| COc1cc2ncnc(Nc3ccccc3CO)c2cc1OC [P-191, 4-(6′-Hydroxymethylphenyl)-amino-6,7-dimethosyquinazoline] | 215 to 218 °C |  |
| COc1cc2ncnc(Nc3cc(Cl)c(O)c(Cl)c3)c2cc1OC [P-189, 4-(4′-Hydroxyl-3′,5′-dichlorophenyl)amino-6,7-dimethoxyquinazoline] | 293 to 295 °C |  |
| COc1cc2ncnc(Nc3ccc(O)c(F)c3)c2cc1OC (as salt: salt) [P-369, 4-(4′Hydroxyl-3′-fluorophenyl)-amino-6,7-dimethoxyquinazoline] | 268 to 270 °C |  |
| COc1cc2ncnc(Nc3ccc(CCO)cc3)c2cc1OC [P-265, 4-[4′-(2″-Hydroxylethylphenyl)]-amino-6,7-dimethoxyqui-nazoline] | 235 to 240 °C |  |
| COc1cc2ncnc(Nc3ccccc3C(F)(F)F)c2cc1OC [P-228, 4-(2′-Trifluoromethylphenyl)-amino-6,7-dimethoxyquinazoline] | 242 to 245 °C |  |
| COc1cc2ncnc(Nc3cc(Cl)ccc3O)c2cc1OC (as salt: salt) [P-93, 4-(3′-Chlooro-6′-hydroxylphenyl)amino-6,7-dimethoxyquinazoline] | 295 °C (dec.) |  |
| COc1cc2ncnc(Nc3ccc(Cl)c4ccccc34)c2cc1OC (as salt: salt) [P-415, 4-(4′-Chloronaphthy-1′)-amino-6,7-dimethoxyquinazoline] | 245 to 248 °C |  |
| COc1cc2ncnc(Nc3ccc(Br)cc3C(=O)O)c2cc1OC [P-88, 4-(4′-Bromo-2′-caboxylphenyl)-amino-6,7-dimethoxyquinazoline] | > 300 °C |  |
| COc1cc2ncnc(Nc3ncccc3O)c2cc1OC [P-150, 4-[(3′-Hydroxylpyridine)-2′]-amino-6,7-dimethoxyquinazoline] | 185 to 187 °C |  |
